In US20150148235A1, “HERBICIDE-RESISTANT SUNFLOWER PLANTS WITH MULTIPLE HERBICIDE RESISTANT ALLELES OF AHASL1 AND METHODS OF USE” (NIDERA S.A., priority 2013, published 2015):

Tested on: sunflower lines and hybrids carrying A122T and/or A205V AHASL1 alleles
Assay: Greenhouse whole-plant response to imazapyr doses (height, Phytotoxicity Index, dry biomass), Example 2
Format: in vivo, Helianthus annuus
Settings: 14 DAT
Experimental: Seeds were sown in Petri dishes and, after germination, plantlets were transplanted to pots of 10 cm of diameter in a potting media consisting of equal parts of vermiculite, soil and sand. Plants were grown in a greenhouse under natural light conditions supplemented with 400 W sodium halide lamps to provide a 16 hr daylength. Day/night temperatures were 25 and 20° C., respectively. At the V2-V4 stage (Schneiter & Miller (1981) Crop Sci. 21:901-903) 10 plants of each genotype were randomly assigned to each treatment consisting of eight imazapyr doses (0, 40, 80, 160, 240, 320, 400 and 480 g ai/ha, corresponding to untreated, 0.5×, 1×, 2×, 3×, 4×, 5× and 6×, respectively), and a zero-time biomass determination. Experiment was arranged as a randomized block design with a full factorial (sunflower line×treatment) arrangement of treatments and 10 replications.
On the day of herbicide application ten plants of each genotype were cut at the cotyledonal node and dried at 60° C. for 48 hrs for zero-time dried weight determination.
The remaining plants were maintained for 14 days after imazapyr treatment (DAT) and their height, Phytotoxicity Index (PI) and above ground dry biomass were determined Height was determined as the distance between the cotyledonal node and the apex of each plant. Above ground biomass data from each line were converted to biomass accumulation after application by subtracting the appropriate average zero-time biomass from each sample. Dry biomass data were converted to percentages of the untreated control plants within each line to allow direct comparisons between groups.

[1] = H1 (A205V hybrid), 0.5x=40 g ai/ha
[2] = H2 (A122T hybrid), 0.5x=40 g ai/ha
[3] = H2 (A122T hybrid), 5x=400 g ai/ha
[4] = H3 (A122T/A205V hybrid), 1x=80 g ai/ha
[5] = H3 (A122T/A205V hybrid), 4x=320 g ai/ha
[6] = H3 (A122T/A205V hybrid), 6x=480 g ai/ha
[7] = H4 (A122T/A205V hybrid), 0.5x=40 g ai/ha
[8] = H4 (A122T/A205V hybrid), 2x=160 g ai/ha
[9] = H4 (A122T/A205V hybrid), 3x=240 g ai/ha

## CC(C)C1(C)N=C(c2ncccc2C(=O)O)NC1=O (stereo not drawn) [imazapyr]
0.5x=40 g ai/ha
  Difference between A205V vs A205V/A122T, Phytotoxicity Index: −0.50
  Difference between A205V vs A205V/A122T, biomass accumulation: −4.33 % of untreated
  Difference between A205V vs A205V/A122T, plant height: 0.21 % of untreated
  Difference between A1222T vs A205V/A122T, plant height: 0.49 % of untreated
  ifference between A1222T vs A205V/A122T, Phytotoxicity Index: −0.21
  ifference between A1222T vs A205V/A122T, biomass accumulation: −0.76 % of untreated
1x=80 g ai/ha
  Difference between A205V vs A205V/A122T, Phytotoxicity Index: −0.50
  Difference between A205V vs A205V/A122T, biomass accumulation: −13.45 % of untreated
  Difference between A205V vs A205V/A122T, plant height: 0.89 % of untreated
  Difference between A1222T vs A205V/A122T, plant height: 1.21 % of untreated
  ifference between A1222T vs A205V/A122T, Phytotoxicity Index: −0.21
  ifference between A1222T vs A205V/A122T, biomass accumulation: −2.17 % of untreated
2x=160 g ai/ha
  Difference between A205V vs A205V/A122T, Phytotoxicity Index: 1.66
  Difference between A205V vs A205V/A122T, biomass accumulation: −30.47 % of untreated
  Difference between A205V vs A205V/A122T, plant height: −24.63 % of untreated
  Difference between A1222T vs A205V/A122T, plant height: −0.32 % of untreated
  ifference between A1222T vs A205V/A122T, Phytotoxicity Index: −0.20
  ifference between A1222T vs A205V/A122T, biomass accumulation: −1.07 % of untreated
3x=240 g ai/ha
  Difference between A205V vs A205V/A122T, Phytotoxicity Index: 4.65
  Difference between A205V vs A205V/A122T, biomass accumulation: −41.42 % of untreated
  Difference between A205V vs A205V/A122T, plant height: −46.79 % of untreated
  Difference between A1222T vs A205V/A122T, plant height: −1.22 % of untreated
  ifference between A1222T vs A205V/A122T, Phytotoxicity Index: −0.17
  ifference between A1222T vs A205V/A122T, biomass accumulation: 0.55 % of untreated
4x=320 g ai/ha
  Difference between A205V vs A205V/A122T, Phytotoxicity Index: 6.92
  Difference between A205V vs A205V/A122T, biomass accumulation: −52.87 % of untreated
  Difference between A205V vs A205V/A122T, plant height: −62.01 % of untreated
  Difference between A1222T vs A205V/A122T, plant height: 1.15 % of untreated
  ifference between A1222T vs A205V/A122T, Phytotoxicity Index: 0.00
  ifference between A1222T vs A205V/A122T, biomass accumulation: −0.73 % of untreated
5x=400 g ai/ha
  Difference between A205V vs A205V/A122T, Phytotoxicity Index: 7.59
  Difference between A205V vs A205V/A122T, biomass accumulation: −46.69 % of untreated
  Difference between A205V vs A205V/A122T, plant height: −48.59 % of untreated
  Difference between A1222T vs A205V/A122T, plant height: 9.12 % of untreated
  ifference between A1222T vs A205V/A122T, Phytotoxicity Index: 0.21
  ifference between A1222T vs A205V/A122T, biomass accumulation: −1.14 % of untreated
6x=480 g ai/ha
  Difference between A205V vs A205V/A122T, Phytotoxicity Index: 7.19
  Difference between A205V vs A205V/A122T, biomass accumulation: −41.41 % of untreated
  Difference between A205V vs A205V/A122T, plant height: −31.39 % of untreated
  Difference between A1222T vs A205V/A122T, plant height: 19.49 % of untreated
  ifference between A1222T vs A205V/A122T, Phytotoxicity Index: 0.17
  ifference between A1222T vs A205V/A122T, biomass accumulation: 2.41 % of untreated
A122T homozygous lines, 0.5x
  Height reduction: 0.1%
A122T homozygous, higher dose (6x)
  Biomass weight reduction: 25%
A205V homozygous lines and hybrid, 0.5x or 1x
  Height versus untreated controls: did not differ from the untreated controls
[1]
  Phytotoxicity Index (scale 0-9): 0
  biomass accumulation (dry): 95.0 % of untreated
H1 (A205V hybrid), 1x=80 g ai/ha
  Phytotoxicity Index (scale 0-9): 0
H1 (A205V hybrid), 2x=160 g ai/ha
  Phytotoxicity Index (scale 0-9): 1.8
H1 (A205V hybrid), 3x=240 g ai/ha
  Phytotoxicity Index (scale 0-9): 6.4
H1 (A205V hybrid), 4x=320 g ai/ha
  Phytotoxicity Index (scale 0-9): 8.0
H1 (A205V hybrid), 5x=400 g ai/ha
  Phytotoxicity Index (scale 0-9): 8.9
H1 (A205V hybrid), 6x=480 g ai/ha
  Phytotoxicity Index (scale 0-9): 9.0
[2]
  Phytotoxicity Index (scale 0-9): 0.5
  biomass accumulation (dry): 100 % of untreated
H2 (A122T hybrid), 1x=80 g ai/ha
  Phytotoxicity Index (scale 0-9): 0.5
H2 (A122T hybrid), 2x=160 g ai/ha
  Phytotoxicity Index (scale 0-9): 0.5
H2 (A122T hybrid), 3x=240 g ai/ha
  Phytotoxicity Index (scale 0-9): 0.5
H2 (A122T hybrid), 4x=320 g ai/ha
  Phytotoxicity Index (scale 0-9): 0.5
[3]
  Phytotoxicity Index (scale 0-9): 0.5
  plant height: 87.0 % of untreated
H2 (A122T hybrid), 6x=480 g ai/ha
  Phytotoxicity Index (scale 0-9): 0.5
H3 (A122T/A205V hybrid), 0.5x=40 g ai/ha
  Phytotoxicity Index (scale 0-9): 0.5
[4]
  Phytotoxicity Index (scale 0-9): 0.5
  biomass accumulation (dry): 100.0 % of untreated
  plant height: 97.0 % of untreated
H3 (A122T/A205V hybrid), 2x=160 g ai/ha
  Phytotoxicity Index (scale 0-9): 0.5
H3 (A122T/A205V hybrid), 3x=240 g ai/ha
  Phytotoxicity Index (scale 0-9): 0.5
[5]
  Phytotoxicity Index (scale 0-9): 0.5
  plant height: 92.0 % of untreated
H3 (A122T/A205V hybrid), 5x=400 g ai/ha
  Phytotoxicity Index (scale 0-9): 0.6
[6]
  Phytotoxicity Index (scale 0-9): 1.0
  plant height: 58.0 % of untreated
[7]
  Phytotoxicity Index (scale 0-9): 0.0
  plant height: 100.0 % of untreated
H4 (A122T/A205V hybrid), 1x=80 g ai/ha
  Phytotoxicity Index (scale 0-9): 0.0
[8]
  Phytotoxicity Index (scale 0-9): 0.0
  plant height: 100.0 % of untreated
[9]
  Phytotoxicity Index (scale 0-9): 0.0
  plant height: 100.0 % of untreated
H4 (A122T/A205V hybrid), 4x=320 g ai/ha
  Phytotoxicity Index (scale 0-9): 0.0
